Source: ChEMBL document CHEMBL5321210, “N-adamantyl-anthranil amide derivatives: New selective ligands for the cannabinoid receptor subtype 2 (CB2R)” (Eur J Med Chem, 2023)
The source made the active and inactive calls. No cut-off for these calls is given here.

Columns and labels:
THP-1 [1] = assay: Antiinflammatory against LPS-activated human THP-1 monocytes assessed as decrease in IL-1beta production at 1 to 10 uM incubated for 24 hrs in the presence of JTE907 by ELISA coupled qRT-PCR analysis; type: functional, cell-based; conditions: dose 1-10 µM
THP-1 [2] = assay: Antiinflammatory activity in human THP-1 monocytes assessed as increase in IL-10 production at 1 to 10 uM incubated for 24 hrs in the presence of JTE907 by ELISA coupled qRT-PCR analysis; type: functional, cell-based; conditions: dose 1-10 µM
THP-1 [3] = assay: Antiinflammatory activity against LPS-activated PMA-differentiated human THP-1 monocytes assessed as decrease in IL-1beta production at 10 uM incubated for 24 hrs in the presence of N-(adamantan-1-yl)-4-(pentylamino)-[1,1'-biphenyl]-3-carboxamide by ELISA coupled qRT-PCR analysis; type: functional, cell-based
THP-1 [4] = assay: Antiinflammatory activity against LPS-activated PMA-differentiated human THP-1 macrophages assessed as decrease in IL-6 production at 10 uM incubated for 24 hrs by ELISA coupled qRT-PCR analysis relative to control; type: functional; parameters: scale not given: the % may be the effect or the level left

Question: With CCCCCNc1ccccc1C(=O)NC12CC3CC(CC(C3)C1)C2 as the compound, how does the Activity (THP-1 [1]) read?
Answer: inactive

Question: And the Activity (THP-1 [2])?
Answer: inactive

Question: Which results are given for O=C(NC1CCCCC1)c1cn(CCN2CCOCC2)c2cc(Cl)ccc2c1=O?
Answer: Activity (THP-1 [3]): inactive; Activity (THP-1 [4]): 70%
